In patent US11091476B2, “Protein kinase inhibitors, preparation method and medical use thereof” (Gan & Lee Pharmaceuticals, priority 2015, dated 2021):

How the values were obtained:
[1] = Rat pharmacokinetic determination (LC/MS/MS of plasma); type: in vivo, SD rats; details: for bioavailability: oral, intragastric 5 mg/kg vs intravenous 2 mg/kg; for AUC(0-inf): read-out: Area under curve AUC0-∞; for AUC(0-t): read-out: Area under curve AUC0-t; for Vd: read-out: Apparent volume of distribution VZ; for clearance: read-out: Clearance rate Cl; for MRT: read-out: Retention time MRT; for half-life: read-out: Half life T1/2 (converted)
Procedure: Rat Pharmacokinetic Determination of Representative Compounds of the Present Disclosure
SD rats were used as the test animals, and the concentrations of the drugs in the plasma of rats at different time points after the intravenous administration and intragastric administration of the representative compounds were determined by LC/MS/MS, so as to study the pharmacokinetic behavior of the compounds of the disclosure in rats and evaluate the pharmacokinetic characteristics thereof.
Intragastric administration: An appropriate amount of sample was weighed, and added with 0.1% hydroxyethyl cellulose/0.5% TWEEN®80 to a final volume to give 1 mg/ml solution.
(§1) Whole blood was anticoagulated with EDTA-K2 and centrifuged, the supernatant was removed, and the residue was frozen at −20° C. until sample analysis. Plasma samples were analyzed by LC-MS/MS, sample pretreatment was performed using a protein precipitation method, the linear range of sample analysis was 1-2000 ng/ml, and the lowest quantification limit was 1 ng/ml.

[2] = Pharmacokinetic determination in mouse (LC/MS/MS of plasma); type: in vivo, ICR mice; details: for AUC(0-t): read-out: Area under curve AUC0-t; for AUC(0-inf): read-out: Area under curve AUC0-∞; for half-life: read-out: Half life T1/2 (converted); for MRT: read-out: Retention time MRT
Procedure: Pharmacokinetic Determination of Representative Compounds of this Disclosure in Mouse
The ICR mice were used as the test animals, and the concentrations of the drugs in the plasma of mice at different time points after intragastric administration and intravenous administration of the representative compound of the present disclosure were determined by LC/MS/MS, so as to study the pharmacokinetic behavior of the compounds of the disclosure in mice and evaluate the pharmacokinetic characteristics thereof.
An appropriate amount of sample was weighed, and added with 0.1% hydroxyethyl cellulose/0.5% TWEEN®80 to a final volume to give 0.5 mg/ml solution for intragastric administration.
as §1, with “analysis. […] The plasma samples were treated in the same manner as that employed for plasma samples of the intragastrically administered group.” for “analysis.”, “using” for “using a”

CDK6/CyclinD3 = CDK6/CyclinD3 (Homo sapiens (Human), UniProt Q00534); assay: CDK kinase inhibitory activity, ADP-Glo Kinase Assay, CDK6/CyclinD3; type: biochemical
CDK6/CyclinD3, sequence (Q00534 whole entry): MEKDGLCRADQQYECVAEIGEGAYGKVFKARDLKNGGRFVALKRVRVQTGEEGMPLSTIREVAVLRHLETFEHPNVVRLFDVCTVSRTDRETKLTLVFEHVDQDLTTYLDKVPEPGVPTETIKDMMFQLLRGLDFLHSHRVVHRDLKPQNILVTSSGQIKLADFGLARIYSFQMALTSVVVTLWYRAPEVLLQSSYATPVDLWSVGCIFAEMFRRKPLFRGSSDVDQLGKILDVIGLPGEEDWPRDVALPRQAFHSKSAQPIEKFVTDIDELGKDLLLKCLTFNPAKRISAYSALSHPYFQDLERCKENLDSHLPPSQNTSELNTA
CDK6/CyclinD3, sequence (P30281 whole entry partner): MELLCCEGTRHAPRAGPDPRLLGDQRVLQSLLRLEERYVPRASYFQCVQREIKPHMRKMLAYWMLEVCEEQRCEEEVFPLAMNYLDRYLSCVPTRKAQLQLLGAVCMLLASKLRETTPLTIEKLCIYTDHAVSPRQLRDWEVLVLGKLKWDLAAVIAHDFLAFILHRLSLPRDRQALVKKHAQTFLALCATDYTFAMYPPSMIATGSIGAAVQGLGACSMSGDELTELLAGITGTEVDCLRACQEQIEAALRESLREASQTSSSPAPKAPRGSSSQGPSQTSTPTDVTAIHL

CDK9/CyclinD3 = CDK9/CyclinD3 (Homo sapiens (Human), UniProt P50750); assay: Kinase inhibitory activity, ADP-Glo Kinase Assay, CDK9/CyclinD3; type: biochemical
CDK9/CyclinD3, sequence (P50750 whole entry): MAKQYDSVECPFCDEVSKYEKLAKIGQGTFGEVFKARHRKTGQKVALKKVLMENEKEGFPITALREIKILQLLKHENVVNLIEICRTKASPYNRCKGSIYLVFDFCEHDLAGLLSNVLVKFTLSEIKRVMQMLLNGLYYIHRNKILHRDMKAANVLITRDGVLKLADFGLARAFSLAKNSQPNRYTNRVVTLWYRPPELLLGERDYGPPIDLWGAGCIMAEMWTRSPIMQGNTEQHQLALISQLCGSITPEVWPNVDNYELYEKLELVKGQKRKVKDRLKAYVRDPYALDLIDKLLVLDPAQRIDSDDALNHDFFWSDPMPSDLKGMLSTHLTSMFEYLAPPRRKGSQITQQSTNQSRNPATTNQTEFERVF
CDK9/CyclinD3, sequence (O75909 whole entry partner): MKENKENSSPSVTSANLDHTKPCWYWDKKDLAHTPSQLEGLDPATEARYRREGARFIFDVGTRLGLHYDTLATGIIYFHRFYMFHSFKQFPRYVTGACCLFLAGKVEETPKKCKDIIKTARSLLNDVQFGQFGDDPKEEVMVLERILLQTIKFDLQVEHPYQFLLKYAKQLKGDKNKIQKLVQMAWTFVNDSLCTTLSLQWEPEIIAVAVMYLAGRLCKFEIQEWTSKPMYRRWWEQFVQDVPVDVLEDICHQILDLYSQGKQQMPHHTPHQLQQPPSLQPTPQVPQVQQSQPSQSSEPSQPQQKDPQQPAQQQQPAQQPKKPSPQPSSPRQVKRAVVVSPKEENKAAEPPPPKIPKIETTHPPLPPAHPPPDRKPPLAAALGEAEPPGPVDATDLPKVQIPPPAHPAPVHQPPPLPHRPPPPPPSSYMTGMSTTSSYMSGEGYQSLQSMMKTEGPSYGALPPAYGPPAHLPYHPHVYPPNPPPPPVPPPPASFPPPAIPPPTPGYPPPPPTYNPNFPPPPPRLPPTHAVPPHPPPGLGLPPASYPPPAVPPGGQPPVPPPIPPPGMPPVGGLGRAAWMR
Procedure: 1.1 Instrument and Kit Information
(§2) 1.2 Experimental Preparation • 1.2.1 Preparation of Kinase Reaction Buffer I: The 5×Reaction Buffer A (Promega; V307A-C) provided in the kit was mixed and diluted with MILLI-Q® H2O and 0.1 M DTT (dithiothreitol) to give 4× kinase buffer, and then MILLI-Q® H2O was further added to finally formulate the solution into 1× Kinase buffer.
1 μl of 10 mM standard substance stock solution was taken and added to 9 μl of kinase reaction buffer I and mixed well; then 90 μl of kinase reaction buffer I was added and mixed well; then 100 μl of kinase reaction buffer I was added and mixed well. The final concentration was 50 μM. • b. 40 μl of kinase reaction buffer II was added into B2 to B10 of a 96-well plate, and 50 μl of the above solution was added into B1; • c. 10 μl of solution was taken from well B1, added into B2, and mixed well; then 10 μl of the resulting solution was taken and added into B3, and dilution was carried out in sequence to B9, so as to obtain control solutions that are diluted by 5-fold sequentially. • (2) Preparation of test compound solution: • a. Test compound solutions at a certain concentration were taken, respectively, diluted with kinase reaction buffer I to a final concentration of 50 μM compound solution; • b. 40 μl of kinase reaction buffer II was added into H2 to H10 of the 96-well plate; and 50 μl of the above solution was added into H1; • c. 10 μl of solution was taken from well H1, added into H2, and mixed well; then 10 μl of the resulting solution was taken and added into H3, and dilution was carried out in sequence to H9, so as to obtain test compound solutions that are diluted by 5-fold sequentially. • 1.2.4 Preparation of a mixed solution of reaction substrate and ATP: • a. Preparation of ATP solution: • 200 μl of 0.1 mM ATP solution: 2 μl of 10 mM ATP was added to 198 μl of kinase reaction buffer I; • 300 μl of 50 μM ATP solution: 150 μl of kinase reaction buffer I was added to 150 μl of the above 0.1 mM ATP solution; • b. Preparation of 300 μl of reaction substrate solution: • 150 μl 1 μg/μl reaction substrate stock solution was added to 150 μl kinase reaction buffer I, and mixed well; • c. The above a/b solutions were mixed to obtain mixed solutions, respectively.
1.3 Experimental process: • 1.3.1: 2 μl of compound solutions of various concentrations were taken, added to a 384-well plate, and centrifuged 3 minutes; • 1.3.2: 4 μl of kinase solution was added to each well, centrifuged at 5000 rpm and 18° C. for 10 minutes, and shaken on a plate shaker for 10 minutes; • 1.3.3: 4 μl of mixed solution of substrate and ATP was added to each well, centrifuged at 5000 rpm and 18° C. for 10 minutes, and shaken on a plate shaker at 37° C. for 90 minutes; • 1.3.4: The 384-well plate was taken out, and allowed to stand to room temperature; • 1.3.5: 10 μl of ADP-GLO™ reagent was added to each well, centrifuged at 5000 rpm and 18° C. for 18 minutes, and shaken on a plate shaker at 25° C. for 40 minutes, and then the reaction was stopped; • 1.3.6: 20 μl of kinase detection reagent was added to each well, centrifuged at 5000 rpm and 18° C. for 10 minutes, and shaken on a plate shaker at 25° C. for 30 minutes; and • 1.3.7: M1000pro MICROPLATE READER was used to read […] values.
(§3) The inhibition rate of each compound at each concentration point was calculated by the formula as follows and curve fitting was performed by GraphPad Prism 5 software to obtain the IC50 value.

CDK2/CyclinE1 = CDK2/CyclinE1 (Homo sapiens (Human), UniProt P24941); assay: Kinase inhibitory activity on CDK2/CyclinE1; type: biochemical
Procedure: as §2
1 μl of 10 mM standard substance stock solution was taken and added to 9 μl of kinase reaction buffer I and mixed well; then 90 μl of kinase reaction buffer I was added and mixed well; then 100 μl of kinase reaction buffer I was added and mixed well. The final concentration was 50 μM. • b. 40 μl of kinase reaction buffer II was added into B2 to B10 of a 96-well plate, and 50 μl of the above solution was added into B1; • c. 10 μl of solution was taken from well B1, added into B2, and mixed well; then 10 μl of the resulting solution was taken and added into B3, and dilution was carried out in sequence to B9, so as to obtain control solutions that are diluted by 5-fold sequentially. • (2) Preparation of test compound solution: • a. […]
as §3

[3] = male, SD, rat, plasma, po, rats, single intragastric administration, 5 mg/kg
[4] = male, rat, plasma, po, rats, single intragastric administration, 5 mg/kg, Mean ± SD
[5] = male, rat, plasma, rats, single intravenous administration, 2 mg/kg, Mean ± SD
[6] = male, ICR, mouse, plasma, po, mice, single intragastric administration, 5 mg/kg, Mean ± SD
[7] = male, ICR, mouse, plasma, mice, single intravenous administration, 2 mg/kg, Mean ± SD

SMILES | bioavailability ([1]; male, SD, rat, plasma, rats) [%] | AUC(0-inf) [1, 3] [ng·h/mL] | AUC(0-t) [1, 4] [ng·h/mL] | Vd [1, 5] [L/kg] | AUC(0-t) [1, 5] [ng·h/mL] | clearance [1, 5] [mL/min/kg] | MRT [1, 5] [h] | AUC(0-t) [2, 6] [ng·h/mL] | AUC(0-inf) [2, 6] [ng·h/mL] | AUC(0-t) [2, 7] [ng·h/mL] | AUC(0-inf) [2, 7] [ng·h/mL] | IC50 (CDK6/CyclinD3) [nM] | IC50 (CDK9/CyclinD3) [nM] | IC50 (CDK2/CyclinE1) [nM] | other results
CCN1CCN(Cc2ccc(Nc3ncc(F)c(-c4cc(F)c5nc(C)n(C(C)C)c5c4)n3)nc2)CC1 [LY2835219, reference compound] | 87.4 | 3440 | 3280 ± 731 | 6.95 ± 2.43 | 1500 ± 337 | 22.4 ± 4.49 | 3.82 ± 1.44 | 756 ± 34 | 765 ± 34 | 674 ± 82.1 | 679 ± 81 |  |  |  | clearance ([2]; male, ICR, mouse, plasma, mice, single intravenous administration, 2 mg/kg, Mean ± SD, read-out: Clearance rate Cl): 49.6 ± 5.72 mL/min/kg
CCN1CCC(c2ccc(Nc3ncc(F)c(-c4cc(F)c5c(c4)C4(CCCC4)C(C)=N5)n3)nc2)CC1 [Example 12, N-(5-(1-ethylpiperidin-4-yl)pyridin-2-yl)-5-fluoro-4-(7′-fluoro-2′-methylspiro [cyclopentane-1,3′-indol]-5′-yl)pyrimidine-2-amino] |  |  |  |  |  |  |  |  |  |  |  | 3.78 | 57.2 | 394 | CDK1/CDK6 (CDK6/CyclinD3; ratio of IC50s, selectivity for CDK6 over CDK1): 283.33; CDK9/CDK6 (CDK6/CyclinD3; ratio of IC50s, selectivity for CDK6 over CDK9): 18.75; Pim-1/CDK6 (CDK6/CyclinD3; ratio of IC50s, selectivity for CDK6 over Pim-1): 3.99
CC1=Nc2c(F)cc(-c3nc(Nc4ccc(C5CCN(C)CC5)cn4)ncc3F)cc2C12CCCC2 [Example 17, 5-Fluoro-4-(7′-fluoro-2′-methylspiro[cyclopentane-1,3′-indol]-5′-yl)-N-(5-(1-methylpiperidin-4-yl)pyridin-2-yl)pyrimidine-2-amino] | 102 | 5260 | 2610 ± 1220 | 19.4 ± 5.89 | 1020 ± 239 | 30 ± 11.1 | 7.78 ± 1.3 | 2130 ± 96.9 | 2500 ± 387 | 1140 ± 77.8 | 1327 ± 4 | 0.73 | 5.36 | 2320 | Inhibitory effect on CDK6, in words (CDK6/CyclinD3; test conclusion): higher enzymatic activity for CDK6; half-life [1, 3]: 2 h; Cmax ([1]; male, rat, plasma, po, rats, single intragastric administration, 5 mg/kg, Mean ± SD, read-out: Blood concentration Cmax): 188 ± 75 ng/mL; MRT [1, 4]: 10.2 ± 0.27 h; AUC(0-inf) [1, 5]: 1220 ± 456 ng·h/mL; half-life [1, 5]: 8.67 ± 4.98 h; Bioavailability in rats, in words ([1]; relative to LY2835219): higher bioavailability; bioavailability ([2]; male, ICR, mouse, plasma, oral, mice, intragastric 5 mg/kg vs intravenous 2 mg/kg): 75.1%; Cmax ([2]; male, ICR, mouse, plasma, po, mice, single intragastric administration, 5 mg/kg, Mean ± SD, read-out: Blood concentration Cmax): 134 ± 11.8 ng/mL; half-life [2, 6]: 8.38 ± 3.16 h; MRT [2, 6]: 9.45 ± 1.05 h; Vd ([2]; male, ICR, mouse, plasma, mice, single intravenous administration, 2 mg/kg, Mean ± SD, read-out: Apparent volume of distribution VZ): 19.8 ± 0.81 L/kg; half-life [2, 7]: 9.1 ± 0.26 h; MRT [2, 7]: 7.51 ± 0.28 h; Clearance rate Cl ([2]; mice, single intravenous administration, 2 mg/kg, Mean ± SD): 25.2 ± 1.72 mL/min/kg; Bioavailability and half-life in mice, in words ([2]; relative to LY2835219): higher bioavailability and longer half-life
